Experimental data reported in patent US20230121086A1, “RORgT INHIBITOR, PREPARATION METHOD THEREOF AND USE THEREOF” (SUNSHINE LAKE PHARMA CO., LTD., priority 2020, published 2023).

Each compound was assayed against T1, RORγt (Homo sapiens, UniProt P51449) (assay: Fluorescence resonance energy transfer (FRET) test, inhibitory activity of RORγt). Conditions: FRET, B-RORγt LBD / Biotin-SRC1; read-out: IC50.
T1 construct: […]
T1 sequence (P51449 269-508 limits assumed): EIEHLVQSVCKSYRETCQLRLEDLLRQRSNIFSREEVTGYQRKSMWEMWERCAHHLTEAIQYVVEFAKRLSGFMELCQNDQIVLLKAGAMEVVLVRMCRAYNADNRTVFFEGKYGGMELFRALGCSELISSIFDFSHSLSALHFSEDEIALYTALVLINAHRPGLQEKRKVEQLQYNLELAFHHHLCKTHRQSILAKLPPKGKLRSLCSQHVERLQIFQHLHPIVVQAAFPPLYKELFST
Assay type: biochemical

| IC50 | Compound |
| --- | --- |
| 25 nM | CCS(=O)(=O)c1ccc([C@H](CC(=O)NCC(=O)OC)NC(=O)c2ccc(N3C[C@@H](Oc4ccc(C(F)(F)F)cc4)C[C@H]3COC(F)F)cc2)cc1 [Example 99, methyl 2-((S)-3-(4-((2S,4S)-2-((difluoromethoxy)methyl)-4-(4-(trifluoromethyl)phenoxy)pyrrolidin-1-yl)benzoylamino)-3-(4-(ethylsulfonyl)phenyl)propionamido)acetate] |
| 14 nM | CCS(=O)(=O)c1ccc([C@H](CC(=O)NCC(=O)O)NC(=O)c2ccc(N3C[C@@H](Oc4ccc(C(F)(F)F)cc4)C[C@H]3COC(F)F)cc2)cc1 [Example 100, 2-((S)-3-(4-((2S,4S)-2-((difluoromethoxy)methyl)-4-(4-(trifluoromethyl)phenoxy)pyrrolidin-1-)benzoylamino)-3-(4-(ethylsulfonyl)phenyl)propionamido)acetic Acid] |
| 4 nM | CCS(=O)(=O)c1ccc([C@@H](NC(=O)c2ccc(N3C[C@@H](Oc4ccc(C(F)(F)F)cc4)C[C@H]3COC(F)F)cc2)C(=O)O)cc1 [Example 102, (R)-2-(4-((2S,4S)-2-((difluoromethoxy)methyl)-4-(4-(trifluoromethyl)phenoxy)pyrrolidin-1-yl)benzoylamino)-2-(4-(ethylsulfonyl)phenyl)acetic Acid] |
| 60 nM | CCS(=O)(=O)c1ccc([C@H](CN(C)C)NC(=O)c2ccc(N3C[C@@H](Oc4ccc(C(F)(F)F)cc4)C[C@H]3COC(F)F)cc2)cc1 [Example 103] |
| 12 nM | CCS(=O)(=O)c1ccc([C@H](COCCOC)NC(=O)c2ccc(N3C[C@@H](Oc4ccc(C(F)(F)F)cc4)C[C@H]3COC(F)F)cc2)cc1 [Example 104] |
| 7 nM | CCS(=O)(=O)c1ccc([C@H](CCC(=O)O)NC(=O)c2ccc(N3C[C@@H](Oc4ccc(C(F)(F)F)cc4)C[C@H]3COC(F)F)cc2)cc1 [Example 105, (S)-4-(4-((2S,4S)-2-((difluoromethoxy)methyl)-4-(4-(trifluoromethyl)phenoxy)pyrrolidin-1-yl)benzoylamino)-4-(4-(ethylsulfonyl)phenyl)butyric Acid] |
| 52 nM | CCS(=O)(=O)c1ccc([C@H](CCCC(=O)O)NC(=O)c2ccc(N3C[C@@H](Oc4ccc(C(F)(F)F)cc4)C[C@H]3COC(F)F)cc2)cc1 [Example 106, (S)-5-(4-((2S,4S)-2-((difluoromethoxy)methyl)-4-(4-(trifluoromethyl)phenoxy)pyrrolidin-1-yl)benzoylamino)-5-(4-(ethylsulfonyl)phenyl)valeric Acid] |
| 24 nM | CCOC[C@H]1CC[C@@H](c2ccc(C(F)(F)F)cc2)CN1c1ccc(C(=O)N[C@H](CC#N)c2ccc(S(=O)(=O)CC)cc2)cc1 [Example 108-2, N—((R)-2-cyano-1-(4-(ethylsulfonyl)phenyl)ethyl)-4-((2R,5S)-2-(ethoxymethyl)-5-(4-(trifluoromethyl)phenyl)piperidin-1-yl)benzamide] |
| 7 nM | CCS(=O)(=O)c1ccc([C@@H](CC#N)NC(=O)c2ccc(N3C[C@@H](c4ccc(C(F)(F)F)cc4)CC[C@H]3COCC3CC3)cc2)cc1 [Example 109-1, N—((R)-2-cyano-1-(4-(ethylsulfonyl)phenyl)ethyl)-4-((2S,5R)-2-((cyclopropylmethoxy)methyl)-5-(4-(trifluoromethyl)phenyl)piperidin-1-yl)benzamide] |
| 19 nM | CCC(F)(F)OC[C@@H]1CC[C@H](c2ccc(C(F)(F)F)cc2)CN1c1ccc(C(=O)N[C@H](CC#N)c2ccc(S(=O)(=O)CC)cc2)cc1 [Example 110-1, N—((R)-2-cyano-1-(4-(ethylsulfonyl)phenyl)ethyl)-4-((2S,5R)-2-((1,1-difluoropropoxy)methyl)-5-(4-(trifluoromethyl)phenyl)piperidin-1-yl)benzamide] |
| 7 nM | CCC(F)(F)OC[C@H]1CC[C@@H](c2ccc(C(F)(F)F)cc2)CN1c1ccc(C(=O)N[C@H](CC#N)c2ccc(S(=O)(=O)CC)cc2)cc1 [Example 110-2, N—((R)-2-cyano-1-(4-(ethylsulfonyl)phenyl)ethyl)-4-((2R,5S)-2-((1,1-difluoropropoxy)methyl)-5-(4-(trifluoromethyl)phenyl)piperidin-1-yl)benzamide] |
| 16 nM | CCS(=O)(=O)c1ccc([C@H](CC#N)NC(=O)c2ccc(N3C[C@H](c4ccc(C(F)(F)F)cc4)CC[C@H]3COC(F)F)cc2F)cc1 [Example 111-1, N—((S)-2-cyano-1-(4-(ethylsulfonyl)phenyl)ethyl)-4-((2S,5S)-2-((difluoromethoxy)methyl)-5-(4-(trifluoromethyl)phenyl)piperidin-1-yl)-2-fluorobenzamide] |
| 13 nM | CCS(=O)(=O)c1ccc([C@H](CC#N)NC(=O)c2ccc(N3C[C@@H](c4ccc(C(F)(F)F)cc4)CC[C@H]3COC(F)F)c(F)c2)cc1 [Example 113-2, N—((S)-2-cyano-1-(4-(ethylsulfonyl)phenyl)ethyl)-4-((2S,5R)-2-((difluoromethoxy)methyl)-5-(4-(trifluoromethyl)phenyl)piperidin-1-yl)-3-fluorobenzamide] |
| 23 nM | CCS(=O)(=O)c1ccc([C@H](CC#N)NC(=O)c2ccc(N3C[C@@H](c4ccc(F)cc4)CC[C@H]3COC(F)F)cc2)cc1 [Example 114-2, N—((S)-2-cyano-1-(4-(ethylsulfonyl)phenyl)ethyl)-4-((2S,5R)-2-((difluoromethoxy)methyl)-5-(4-fluorophenyl)piperidin-1-yl)benzamide] |
| 26 nM | CCS(=O)(=O)c1ccc([C@H](CC#N)NC(=O)c2ccc(N3C[C@H](c4ccccc4)CC[C@H]3COC(F)F)cc2)cc1 [Example 115-2, N—((S)-2-cyano-1-(4-(ethylsulfonyl)phenyl)ethyl)-4-((2S,5S)-2-((difluoromethoxy)methyl)-5-phenylpiperidin-1-yl)benzamide] |
| 26 nM | CCS(=O)(=O)c1ccc([C@H](CC#N)NC(=O)c2ccc(N3C[C@H](N4CCC(C(F)(F)F)CC4)CC[C@H]3COC(F)F)cc2)cc1 [Example 117-2, N—((S)-2-cyano-1-(4-(ethylsulfonyl)phenyl)ethyl)-4-((3′R,6′S)-6′-((difluoromethoxy)methyl)-4-(trifluoromethyl)-(1,3′-bipiperidin)-1′-yl)benzamide] |
| 120 nM | CCS(=O)(=O)c1ccc([C@H](CC#N)NC(=O)c2ccc(N3C[C@H](O)C[C@H]3COC(F)F)cc2)cc1 [Example 131, N—((S)-2-cyano-1-(4-(ethylsulfonyl)phenyl)ethyl)-4-((2S,4R) ((difluoromethoxy)methyl)-4-hydroxypyrrolidin-1-yl)benzamide] |
| 104 nM | CCS(=O)(=O)c1ccc([C@H](CC#N)NC(=O)c2ccc(C(O)(C(F)(F)F)C(F)(F)F)cc2)cc1 [Example 143, (S)—N-(2-cyano-1-(4-(ethylsulfonyl)phenyl)ethyl)-4-(1,1,1,3,3,3-hexafluoro-2-hydroxypropan-2-yl)benzamide] |
| 18.2 nM | CCS(=O)(=O)c1ccc([C@H](CNC(=O)OC)NC(=O)c2ccc(N3C[C@@H](Oc4ccc(C(F)(F)F)cc4)C[C@H]3COC(F)F)cc2)cc1 [Example 147, methyl ((R)-2-(4-((2S,4S)-2-((difluoromethoxy)methyl)-4-(4-(trifluoromethyl)phenoxy)pyrrolidin-1-yl)benzoylamino)-2-(4-(ethylsulfonyl)phenyl)ethyl)carbamate] |
| 15.2 nM | CCS(=O)(=O)c1ccc([C@H](CNC=O)NC(=O)c2ccc(N3C[C@@H](Oc4ccc(C(F)(F)F)cc4)C[C@H]3COC(F)F)cc2)cc1 [Example 148] |
| 7.7 nM | CCS(=O)(=O)c1ccc([C@H](COC(N)=O)NC(=O)c2ccc(N3C[C@@H](Oc4ccc(C(F)(F)F)cc4)C[C@H]3COC(F)F)cc2)cc1 [Example 149, (R)-2-(4-((2S,4S)-2-((difluoromethoxy)methyl)-4-(4-(trifluoromethyl)phenoxy)pyrrolidin-1-yl)benzoylamino)-2-(4-(ethylsulfonyl)phenyl)ethyl carbamate] |
| 10 nM | CCS(=O)(=O)c1ccc([C@H](COC(=O)NC)NC(=O)c2ccc(N3C[C@@H](Oc4ccc(C(F)(F)F)cc4)C[C@H]3COC(F)F)cc2)cc1 [Example 150, (R)-2-(4-((2S,4S)-2-((difluoromethoxy)methyl)-4-(4-(trifluoromethyl)phenoxy)pyrrolidin-1-yl)benzoylamino)-2-(4-(ethylsulfonyl)phenyl)ethyl methylcarbamate] |
| 8.7 nM | [2H]C([2H])([2H])OC[C@@H]1C[C@H](Oc2ccc(C(F)(F)F)cc2)CN1c1ccc(C(=O)N[C@@H](CC#N)c2ccc(S(=O)(=O)CC)cc2)cc1 [Example 151, N—((S)-2-cyano-1-(4-(ethylsulfonyl)phenyl)ethyl)-4-((2S,4S)-2-((3,3,3-d3-methoxy)methyl)-4-(4-(trifluoromethyl)phenoxy)pyrrolidin-1-yl)benzamide] |
| 13.2 nM | CCS(=O)(=O)c1ccc([C@H](CC#N)NC(=O)c2ccc(N3C[C@@H](Oc4ccc(-n5cccn5)cc4)C[C@H]3COC(F)F)cc2)cc1 [Example 152, 4-((2S,4S)-4-(4-(1H-pyrazol-1-yl)phenoxy)-2-((difluoromethoxy)methyl)pyrrolidin-1-yl)-N—((S)-2-cyano-1-(4-(ethylsulfonyl)phenyl)ethyl)benzamide] |
| 5 nM | CCS(=O)(=O)c1ccc([C@H](COC(N)=O)NC(=O)c2ccc(N3C[C@@H](Oc4ccc(Cl)cn4)C[C@H]3COC(F)F)cc2)cc1 [Example 153, (R)-2-(4-((2S,4S)-4-((5-chloropyridin-2-yl)oxy)-2-((difluoromethoxy)methyl)pyrrolidin-1-yl)benzoylamino)-2-(4-(ethylsulfonyl)phenyl)ethyl carbamate] |
| 47 nM | CCS(=O)(=O)c1ccc([C@H](COC(=O)N(C)C)NC(=O)c2ccc(N3C[C@@H](Oc4ccc(C(F)(F)F)cc4)C[C@H]3COC(F)F)cc2)cc1 [Example 154, (R)-2-(4-((2S,4S)-2-((difluoromethoxy)methyl)-4-(4-(trifluoromethyl)phenoxy)pyrrolidin-1-yl)benzoylamino)-2-(4-(ethylsulfonyl)phenyl)ethyl dimethylcarbamate] |
